Values quoted from earlier work in patent US9457026B2, “Methods for producing aripiprazole suspension and freeze-dried formulation” (OTSUKA PHARMACEUTICAL CO., LTD., priority 2007, dated 2016).

Conditions: room temperature

SMILES: O=C1CCc2ccc(OCCCCN3CCN(c4cccc(Cl)c4Cl)CC3)cc2N1 [Aripiprazole]
- aqueous solubility: < 1 µg/mL
